Assays:
Type in all cases: in vivo
Amaranthus retroflexus = assay: Weeding effect in pre-emergence stage; settings: 30 g/ha, 4 weeks
Method in brief: (§1)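 Test compounds were dissolved in acetone with tween 80, diluted with water and sprayed right after sowing, with seeds covered by 0.5-2 cm of soil. Rates were 500 to 7.5 g/ha. Growth control was scored against activity-level criteria after 4 weeks in the greenhouse.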

Abutilon theophrasti [1] = assay: Weeding effect in pre-emergence stage; settings: 30 g/ha, 4 weeks
Method in brief: as §1

Setaria viridis [2] = assay: Weeding effect in pre-emergence stage; settings: 30 g/ha, 4 weeks
Method in brief: as §1

Veronica didyma Tenore = assay: Weeding effect in pre-emergence stage; settings: 30 g/ha, 4 weeks
Method in brief: as §1

Descurainia sophia = assay: Weeding effect in pre-emergence stage; settings: 30 g/ha, 4 weeks
Method in brief: as §1

Capsella bursa-pastoris = assay: Weeding effect in pre-emergence stage; settings: 30 g/ha, 4 weeks
Method in brief: as §1

Echinochloa crusgalli = assay: Weeding effect in post-emergence stage; settings: fresh weight control rate level
Method in brief: (§2)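 Pot-grown greenhouse plants sprayed at 2–3 leaf stage, 2 weeks after sowing, with compound in acetone/Tween 80 plus methyl oleate emulsifiable concentrate (1.5 liter/ha) at 500–7.5 g/ha. Growth control rated 3 weeks after treatment; mean of three replicates.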

cotton = assay: Pre-emergence stage, crop selectivity; settings: 30 g/ha, 4 weeks
Method in brief: as §1

corn = assay: Pre-emergence stage, crop selectivity; settings: 30 g/ha, 4 weeks
Method in brief: as §1

Peanut = assay: Pre-emergence stage, crop selectivity; settings: 30 g/ha, 4 weeks
Method in brief: as §1

Soybeans = assay: Pre-emergence stage, crop selectivity; settings: 30 g/ha, 4 weeks
Method in brief: as §1

Abutilon theophrasti [3] = assay: Weeding effect in post-emergence stage; settings: fresh weight control rate level
Method in brief: as §2

Alopecurus japonicus = assay: Weeding effect in post-emergence stage; settings: fresh weight control rate level
Method in brief: as §2

Setaria viridis [4] = assay: Weeding effect in post-emergence stage; settings: fresh weight control rate level
Method in brief: as §2

Digitaria sanguinalis = assay: Weeding effect in post-emergence stage; settings: fresh weight control rate level
Method in brief: as §2

Eleusine indica = assay: Weeding effect in post-emergence stage; settings: fresh weight control rate level
Method in brief: as §2

Rice = assay: Transplanted rice safety evaluation; settings: transplanted japonica rice, 30 g/ha, 21 days after treatment
Method: (§3) The activity level criteria for plant damage (i.e., growth control rate) are as follows:
In addition, the rice field soil that loaded into the 1/1,000,000 ha pot was leveled to keep water storage at 3-4 cm depth. The 5 leaf stage rice (japonica rice) was transplanted at 3 cm of transplanting depth the next day. The compound of the present invention was treated by the same way after 5 days of transplantation.
(§4) The fertility condition of Echinochloa crusgalli. Scirpus juncoides. Bidens tripartita L., Monochoria vaginalis, Leptochloa chinensis and Sagittaria trifolia 14 days after the treatment of the compound of the invention and the fertility condition of rice 21 days after the treatment of the compound of the invention respectively with the naked eye. Evaluate the weed control effect with the above activity standard level. Many compounds show excellent activity and selectivity.

Leptochloa chinensis = assay: Weed control effect evaluation in rice field; settings: rice field pot, 30 g/ha, 14 days after treatment
From the text: as §3
(§5) Rice field soil was loaded into a 1/1,000,000 ha pot. The seeds of Echinochloa crusgalli. Scirpus juncoides. Bidens tripartita L., Monochoria vaginalis, and Leptochloa chinensis were sowed and gently covered with soil, then left to stand still in greenhouse in the state of 0.5-1 cm of water storage. The tuber of Sagittaria trifolia was planted in the next day or 2 days later. It was kept at 3-4 cm of water storage thereafter. The weeds were treated by dripping the WP or SC water diluents prepared according to the common preparation method of the compounds of the present invention with pipette homogeneously to achieve specified effective amount when Echinochloa crusgalli. Scirpus juncoides, Bidens tripartita L., Monochoria vaginalis, and Leptochloa chinensis reached 0.5 leaf stage and Sagittaria trifolia reached the time point of primary leaf stage.
as §4

Monochoria vaginalis = assay: Weed control effect evaluation in rice field; settings: rice field pot, 30 g/ha, 14 days after treatment
From the text: as §3, §5, §4

Scirpus juncoides = assay: Weed control effect evaluation in rice field; settings: rice field pot, 30 g/ha, 14 days after treatment
From the text: as §3, §5, §4

| SMILES | activity level (growth control rate) Amaranthus retroflexus (Amaranthus retroflexus) | activity level (growth control rate) Abutilon theophrasti (Abutilon theophrasti [1]) | activity level (growth control rate) Setaria viridis (Setaria viridis [2]) | activity level (growth control rate) Veronica didyma Tenore (Veronica didyma Tenore) | activity level (growth control rate) Descurainia sophia (Descurainia sophia) | activity level (growth control rate) Capsella bursa-pastoris (Capsella bursa-pastoris) | plant damage level Cotton (cotton) | plant damage level Corn (corn) | plant damage level Peanut (Peanut) | plant damage level Soybeans (Soybeans) | plant damage level Rice (Rice) | activity level (weed control effect) Leptochloa chinensis (Leptochloa chinensis) | activity level (weed control effect) Monochoria vaginalis (Monochoria vaginalis) | activity level (weed control effect) Scirpus juncoides (Scirpus juncoides) | also measured |
| --- | --- | --- | --- | --- | --- | --- | --- | --- | --- | --- | --- | --- | --- | --- | --- |
| CC(C)N(C)S(=O)(=O)NC(=O)[C@@H](C)O/N=C/c1cc(-n2c(=O)cc(C(F)(F)F)n(C)c2=O)c(F)cc1Cl [421(R)] | 5 (Level 5: growth control rate is above 85%) | 5 (Level 5: growth control rate is above 85%) | 5 (Level 5: growth control rate is above 85%) | 5 (Level 5: growth control rate is above 85%) | 5 (Level 5: growth control rate is above 85%) | 5 (Level 5: growth control rate is above 85%) | 0 (Level 0: growth control rate is less than 5%) | 0 (Level 0: growth control rate is less than 5%) | 0 (Level 0: growth control rate is less than 5%) | 0 (Level 0: growth control rate is less than 5%) | 0 (Level 0: growth control rate is less than 5%) | 5 (Level 5: growth control rate is above 85%) | 5 (Level 5: growth control rate is above 85%) | 5 (Level 5: growth control rate is above 85%) | Weeding effect in post-emergence stage, Echinochloa crusgalli (level) (Echinochloa crusgalli; Dose 15 g/ha): 5 (Level 5: growth control rate is above 85%); Weeding effect in post-emergence stage, Abutilon theophrasti (level) (Abutilon theophrasti [3]; Dose 15 g/ha): 5 (Level 5: growth control rate is above 85%); Weeding effect in post-emergence stage, Alopecurus japonicus (level) (Alopecurus japonicus; Dose 15 g/ha): 5 (Level 5: growth control rate is above 85%); Weeding effect in post-emergence stage, Setaria viridis (level) (Setaria viridis [4]; Dose 15 g/ha): 5 (Level 5: growth control rate is above 85%); Weeding effect in post-emergence stage, Digitaria sanguinalis (level) (Digitaria sanguinalis; Dose 15 g/ha): 5 (Level 5: growth control rate is above 85%); Weeding effect in post-emergence stage, Eleusine indica (level) (Eleusine indica; Dose 15 g/ha): 5 (Level 5: growth control rate is above 85%) |
| C=CCOC(=O)C(C)(C)O/N=C/c1cc(-n2c(=O)cc(C(F)(F)F)n(C)c2=O)c(F)cc1Cl [Compound 434] | 5 (Level 5: growth control rate is above 85%) | 5 (Level 5: growth control rate is above 85%) | 5 (Level 5: growth control rate is above 85%) | 5 (Level 5: growth control rate is above 85%) | 5 (Level 5: growth control rate is above 85%) | 5 (Level 5: growth control rate is above 85%) | 0 (Level 0: growth control rate is less than 5%) | 0 (Level 0: growth control rate is less than 5%) | 0 (Level 0: growth control rate is less than 5%) | 0 (Level 0: growth control rate is less than 5%) | 0 (Level 0: growth control rate is less than 5%) | 5 (Level 5: growth control rate is above 85%) | 5 (Level 5: growth control rate is above 85%) | 5 (Level 5: growth control rate is above 85%) | Weeding effect in post-emergence stage, Echinochloa crusgalli (level) (Echinochloa crusgalli; Dose 30 g/ha): 5 (Level 5: growth control rate is above 85%); Weeding effect in post-emergence stage, Abutilon theophrasti (level) (Abutilon theophrasti [3]; Dose 30 g/ha): 5 (Level 5: growth control rate is above 85%); Weeding effect in post-emergence stage, Alopecurus japonicus (level) (Alopecurus japonicus; Dose 30 g/ha): 5 (Level 5: growth control rate is above 85%); Weeding effect in post-emergence stage, Setaria viridis (level) (Setaria viridis [4]; Dose 30 g/ha): 5 (Level 5: growth control rate is above 85%); Weeding effect in post-emergence stage, Digitaria sanguinalis (level) (Digitaria sanguinalis; Dose 30 g/ha): 5 (Level 5: growth control rate is above 85%); Weeding effect in post-emergence stage, Eleusine indica (level) (Eleusine indica; Dose 30 g/ha): 5 (Level 5: growth control rate is above 85%) |

Reference: patent US20230111310A1, “CARBOXYLIC ACID DERIVATIVE-SUBSTITUTED IMINO ARYL COMPOUND, PREPARATION METHOD THEREFOR, HERBICIDAL COMPOSITION AND USE THEREOF” (Qingdao Kingagroot Chemical Compound Co., Ltd., priority 2020, published 2023)
